Values quoted from earlier work as cited in patent publication US20260102333A1, “TOPICAL DELIVERY OF ANTIFUNGAL AGENTS FOR TREATING FUNGAL INFECTIONS” (LYOTROPIC DELIVERY SYSTEMS LTD., priority 2022, published 2026).
Structures can show the parent of a compound that is named as a salt.

Legend:
[1] = tested on: Trichophyton mentagrophytes

CN(C/C=C/C#CC(C)(C)C)Cc1cccc2ccccc12 [TRB, terbinafine hydrochloride]
MIC50 (minimum inhibitory concentration required for 50% inhibition) [1]: 0.03 to 0.5 µg/mL
MIC50 (minimum inhibitory concentration required for 50% inhibition) (Trichophyton rubrum): 0.03 to 0.5 µg/mL
